Two molecules from publication PMC2883171 (Organic & biomolecular chemistry, 2008) can be followed below.

By Km is commonly meant the substrate concentration at which the rate is half of its maximum.

The target in series [1] is T1, soybean lipoxygenase-1 (sLO-1) (Glycine max, UniProt P08170).
T1 sequence (P08170 1-839): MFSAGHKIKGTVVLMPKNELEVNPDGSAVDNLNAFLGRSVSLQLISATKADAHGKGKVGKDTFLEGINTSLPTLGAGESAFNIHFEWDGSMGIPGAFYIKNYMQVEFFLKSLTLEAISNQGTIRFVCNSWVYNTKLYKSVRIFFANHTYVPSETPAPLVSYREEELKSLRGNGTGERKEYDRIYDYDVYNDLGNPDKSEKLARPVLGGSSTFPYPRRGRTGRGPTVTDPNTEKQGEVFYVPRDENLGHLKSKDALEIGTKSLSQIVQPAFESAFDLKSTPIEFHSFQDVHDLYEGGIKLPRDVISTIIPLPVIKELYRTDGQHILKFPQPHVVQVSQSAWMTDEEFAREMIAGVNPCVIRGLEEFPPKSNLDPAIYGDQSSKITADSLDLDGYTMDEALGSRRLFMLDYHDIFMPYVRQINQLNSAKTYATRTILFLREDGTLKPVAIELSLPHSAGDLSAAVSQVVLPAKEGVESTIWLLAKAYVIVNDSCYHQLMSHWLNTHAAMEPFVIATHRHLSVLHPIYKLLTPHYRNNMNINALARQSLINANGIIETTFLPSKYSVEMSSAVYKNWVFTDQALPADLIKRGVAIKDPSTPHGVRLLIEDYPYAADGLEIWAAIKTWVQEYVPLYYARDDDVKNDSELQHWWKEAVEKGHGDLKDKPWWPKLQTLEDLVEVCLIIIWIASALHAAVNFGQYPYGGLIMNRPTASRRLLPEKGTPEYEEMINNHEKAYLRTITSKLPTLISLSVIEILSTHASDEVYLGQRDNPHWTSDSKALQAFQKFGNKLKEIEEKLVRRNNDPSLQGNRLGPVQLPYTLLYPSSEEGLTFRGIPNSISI
The series can be described thus: Kinetic inhibition assay of sLO-1. The format is biochemical. Particulars: read-out: Km for linoleic acid with sLO-1; pH 10.0.

Series [2] concerns the target T2, human reticulocyte 15-lipoxygenase-1 (15-hLO-1) (Homo sapiens, UniProt P16050).
T2 sequence (P16050 1-662): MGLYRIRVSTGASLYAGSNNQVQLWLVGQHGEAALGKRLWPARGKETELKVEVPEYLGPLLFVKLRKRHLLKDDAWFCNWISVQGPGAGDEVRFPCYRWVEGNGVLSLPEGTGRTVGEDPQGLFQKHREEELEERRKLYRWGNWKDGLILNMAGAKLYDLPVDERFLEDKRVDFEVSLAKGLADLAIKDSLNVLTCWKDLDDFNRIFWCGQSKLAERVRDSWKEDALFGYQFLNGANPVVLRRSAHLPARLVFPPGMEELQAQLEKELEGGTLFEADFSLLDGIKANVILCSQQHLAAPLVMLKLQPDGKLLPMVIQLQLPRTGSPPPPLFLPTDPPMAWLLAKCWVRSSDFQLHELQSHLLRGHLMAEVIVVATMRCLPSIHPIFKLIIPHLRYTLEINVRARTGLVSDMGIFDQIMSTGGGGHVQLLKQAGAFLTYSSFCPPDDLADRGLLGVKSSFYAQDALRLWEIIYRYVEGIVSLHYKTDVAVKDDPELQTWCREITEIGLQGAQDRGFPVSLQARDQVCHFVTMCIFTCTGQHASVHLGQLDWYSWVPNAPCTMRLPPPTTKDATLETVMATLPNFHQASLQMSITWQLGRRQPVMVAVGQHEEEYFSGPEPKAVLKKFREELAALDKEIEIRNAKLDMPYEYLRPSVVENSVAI
In words: Kinetic inhibition assay of 15-hLO-1. Particulars: read-out: Km with 15-hLO-1; substrate itself, 13-HPODE activator. The format is biochemical.

Substrate in series [3]: CCCCC/C=C\C/C=C\C/C=C\C/C=C\CCCC(=O)O
The series can be described thus: Kinetic inhibition assay of sLO-1. The format is biochemical, soybean.

As to `CCCCC/C=C\C/C=C\CCCCCCCC(=O)O` [LA, linoleic acid, reference compound], the Km in series [1] was 28 ± 5 µM; in series [2] it was 6.2 ± 0.9 µM.

B1: soybean lipoxygenase-1 (sLO-1) (Glycine max) (protein)
chain: MFSAGHKIKGTVVLMPKNELEVNPDGSAVDNLNAFLGRSVSLQLISATKADAHGKGKVGKDTFLEGINTSLPTLGAGESAFNIHFEWDGSMGIPGAFYIKNYMQVEFFLKSLTLEAISNQGTIRFVCNSWVYNTKLYKSVRIFFANHTYVPSETPAPLVSYREEELKSLRGNGTGERKEYDRIYDYDVYNDLGNPDKSEKLARPVLGGSSTFPYPRRGRTGRGPTVTDPNTEKQGEVFYVPRDENLGHLKSKDALEIGTKSLSQIVQPAFESAFDLKSTPIEFHSFQDVHDLYEGGIKLPRDVISTIIPLPVIKELYRTDGQHILKFPQPHVVQVSQSAWMTDEEFAREMIAGVNPCVIRGLEEFPPKSNLDPAIYGDQSSKITADSLDLDGYTMDEALGSRRLFMLDYHDIFMPYVRQINQLNSAKTYATRTILFLREDGTLKPVAIELSLPHSAGDLSAAVSQVVLPAKEGVESTIWLLAKAYVIVNDSCYHQLMSHWLNTHAAMEPFVIATHRHLSVLHPIYKLLTPHYRNNMNINALARQSLINANGIIETTFLPSKYSVEMSSAVYKNWVFTDQALPADLIKRGVAIKDPSTPHGVRLLIEDYPYAADGLEIWAAIKTWVQEYVPLYYARDDDVKNDSELQHWWKEAVEKGHGDLKDKPWWPKLQTLEDLVEVCLIIIWIASALHAAVNFGQYPYGGLIMNRPTASRRLLPEKGTPEYEEMINNHEKAYLRTITSKLPTLISLSVIEILSTHASDEVYLGQRDNPHWTSDSKALQAFQKFGNKLKEIEEKLVRRNNDPSLQGNRLGPVQLPYTLLYPSSEEGLTFRGIPNSISI
Consider B1, for which the Km in series [3] (other: pH 7.5, 13-HPODE activator, pH 7.5) came to 31.7 ± 3.5 µM; in series [3] (other: pH 10.0, 13-HPODE activator, pH 10.0), 15.1 ± 1.5 µM.
